Measurements as given in US11208642B2, “Microbial syringol utilization” (Alliance for Sustainable Energy, LLC, priority 2018, dated 2021).

Key:
[1] = target: T1, GcoA-F169A (Amycolatopsis sp., UniProt P0DPQ7, F169A/H210Q); test: Substrate dissociation constant (KD) by UV/vis spin-state titration; type: binding
T1 construct: GST (N, cleaved yes); made in house; host or cells: E. coli Rosetta 2 (DE3)
Procedure: Guaiacol (FIG. 1A) caused the Soret peak (λ=417 nm) of GcoA-F169A to shift to 387 nm, indicating the conversion of a low-spin to a high-spin species. Syringol (FIG. 1B) caused the Soret peak (λ=417 nm) of GcoA-F169A to shift to 387 nm, indicating the conversion of a low-spin to a high-spin species. 3MC (FIG. 1C) caused the Soret peak (λ=417 nm) of GcoA-F169A to shift to 387 nm, indicating the conversion of a low-spin to a high-spin species. 0-60 μM substrate was titrated into a solution containing 3 μM GcoA-F169A and air-saturated buffer (25 mM HEPES, 50 mM NaCl, pH 7.5, 25° C.) and the spectra monitored until there was no more change, indicating saturation. The solution reached equilibrium prior to each substrate addition. […] Error bars represent ±1 standard deviation of two or more runs.
Zero to 60 μM of guaiacol, syringol, or 3MC in 0.5 or 1 μM aliquots, were titrated into a cuvette containing 3 μM F169A GcoA in 25 mM HEPES, 50 mM NaCl, pH 7.5. The spectrum after each substrate addition was recorded, beginning with no substrate bound. The solution reached equilibrium before the next addition. A difference spectrum was made to illustrate the shift from a low-spin aquo-heme complex to the high-spin substrate-bound complex (spectral shift from 417 nm to 388 nm). […] The absorbance at 388 nm (AbS388-417 nm) was plotted as a function of [substrate], yielding a quadratic curve that was fit to equation (5) to determine the KD.
Where L0, Et, KD, and ΔAbsmax are the ligand concentrations, total protein (subunit) concentration, the equilibrium dissociation constant, and the maximum AbS388-417nm, respectively. Reported values are the average of 2 or more measurements.

[2] = target: T2, GcoA-F169A and GcoB (Amycolatopsis sp., UniProt P0DPQ7, F169A/H210Q); test: Uncoupling reactions: endpoint formaldehyde referenced to NADH consumed; type: biochemical; conditions: for % Formaldehyde produced: referenced to NADH consumed; for Coupling efficiency: GcoA-F169A-catalyzed reaction
T2 construct: GST (N, cleaved yes); made in house; host or cells: E. coli Rosetta 2 (DE3)
T2 sequence (P0DPQ7 whole entry F169A/H210Q): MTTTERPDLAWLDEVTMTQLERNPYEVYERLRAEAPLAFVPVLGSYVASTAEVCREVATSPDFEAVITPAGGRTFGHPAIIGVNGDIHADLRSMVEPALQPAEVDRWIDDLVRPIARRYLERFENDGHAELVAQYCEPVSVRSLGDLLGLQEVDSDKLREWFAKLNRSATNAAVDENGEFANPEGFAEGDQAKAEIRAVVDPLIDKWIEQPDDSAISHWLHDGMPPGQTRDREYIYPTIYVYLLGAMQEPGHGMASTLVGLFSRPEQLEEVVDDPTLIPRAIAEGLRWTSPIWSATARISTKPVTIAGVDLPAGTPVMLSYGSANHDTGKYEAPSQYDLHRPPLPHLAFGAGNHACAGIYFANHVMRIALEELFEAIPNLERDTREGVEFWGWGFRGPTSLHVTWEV
Procedure: The ^a in Table 3 notes that 0.2 μM GcoA-F169A and GcoB were reacted with 100 μg catalase, 100 or 200 μM NADH, and 100 μM substrate in 25 mM HEPES, 50 mM NaCl, pH 7.5, 25° C., 210 μM O2. Endpoint analyses were done to quantify formaldehyde produced, which was then referenced to NADH consumed. The ^b in Table 3 notes that the same reaction done above was repeated to quantify H2O2 produced using the Amplex Red/HRP assay. The amount of hydrogen peroxide was then referenced to NADH consumed.
Formaldehyde determination. A colorimetric assay using tryptophan can be used to quantify the amount of formaldehyde produced in F169 GcoA/B reactions with guaiacol, syringol, or 3MC. 0.2 μM each of F169 GcoA mutants and GcoB were dissolved in air-saturated buffer (25 mM HEPES, 50 mM NaCl) in a cuvette at pH 7.5, 25° C. 100 μg/mL catalase was added to each reaction to capture any H2O2 formed during the uncoupled reaction. Two hundred μM NADH was added and the background rate recorded. One hundred (guaiacol, syringol, or 3MC) or 200 (syringol) μM of substrate was then added and the reaction monitored until there was no more change, due to either substrate, NADH or O2 depletion, whichever occurred first. 200 μL of the reaction was then quenched by adding 200 μL of a 0.1% tryptophan solution in 50% ethanol and 200 μL of 90% sulfuric acid. Upon thorough mixing, 40 μL of 1% FeCl3 was added. The solution was then incubated in a heating block for 90 min at 70° C. After cooling, the absorbance was read at 575 nm and the concentration of formaldehyde was calculated by using ε575 nm=4.2 mM^−1 cm^−1, obtained with formaldehyde as a standard. A negative control included everything but the substrate and was used as a baseline.

T1 sequence (P0DPQ7 whole entry F169A/H210Q): as above

Structure (SMILES)	Kd [1] [µM]	% Formaldehyde produced ([2]; 100 μM substrate + 100 μM NADH) [%]	Coupling efficiency [2] [%]	% Formaldehyde produced ([2]; 100 μM substrate + 200 μM NADH) [%]
COc1cccc(O)c1O [3MC, 3-methoxycatechol]	9.5 ± 0.02	52 ± 7	64±10	
COc1ccccc1O [guaiacol, 2-methoxyphenol]	7.1 ± 0.1	100 ± 10	91±8	
COc1cccc(OC)c1O [syringol, 2,6-dimethoxyphenol]	1.7 ± 0.07	125 ± 6		91 ± 8
